# Read-outs that look alike come from different tables or passages of the source.
# Test system: COVID-19
# Settings: for Cough complaint scale, mean / Cough complaint scale, median / Change in cough complaint scale, mean / Change in cough complaint scale, median: n = 36; for Ability to perform normal activities, complaint scale 0-6, mean change / Ability to perform normal activities, complaint scale 0-6, median change: week 4 - baseline
# [1] = baseline, BMI ≥30.0 or type 2 diabetes, n = 27
# [2] = baseline, current or former smokers, n = 75
# [3] = baseline, patients with cough and fever, n = 15
# [4] = baseline, patients with cough, n = 106
# [5] = baseline, patients with fever, n = 21
# [6] = baseline, ≥1 risk factor for severe COVID-19, n = 117
# [7] = patients with cough and taste loss, baseline
# [8] = patients with cough and taste loss, week 2
# [9] = patients with cough and taste loss, week 2 - baseline
# [10] = patients with cough and taste loss, week 4
# [11] = patients with cough and taste loss, week 6
# [12] = patients with cough and taste loss, week 6 - baseline
# [13] = patients with cough, fever and taste loss, n = 6, week 4 compared to baseline
# [14] = patients with cough, fever and taste loss, n = 6, week 6 compared to baseline
# [15] = patients with fever and taste loss, n = 8, week 4 compared to baseline
# [16] = patients with fever and taste loss, n = 8, week 6 compared to baseline
# [17] = week 2 - baseline, BMI ≥30.0 or type 2 diabetes, n = 27, 500 mg IR + 500 mg CICR-NAM daily
# [18] = week 2, BMI ≥30.0 or type 2 diabetes, n = 27, 500 mg IR + 500 mg CICR-NAM daily
# [19] = week 2, current or former smokers, n = 75, 500 mg IR + 500 mg CICR-NAM daily
# [20] = week 2, patients with cough and fever, n = 15, 500 mg IR + 500 mg CICR-NAM daily
# [21] = week 2, patients with cough, n = 106, 500 mg IR + 500 mg CICR-NAM daily
# [22] = week 2, patients with fever, n = 21, 500 mg IR + 500 mg CICR-NAM daily
# [23] = week 2, ≥1 risk factor for severe COVID-19, n = 117, 500 mg IR + 500 mg CICR-NAM daily
# [24] = BMI ≥30.0 or type 2 diabetes, n = 27, 500 mg IR + 500 mg CICR-NAM daily
# [25] = patients with cough and fever, n = 15, 500 mg IR + 500 mg CICR-NAM daily
# [26] = patients with cough, n = 106, 500 mg IR + 500 mg CICR-NAM daily
# [27] = patients with fever, n = 21, 500 mg IR + 500 mg CICR-NAM daily
# [28] = week 4, BMI ≥30.0 or type 2 diabetes, n = 27, 500 mg IR + 500 mg CICR-NAM daily
# [29] = week 4, current or former smokers, n = 75, 500 mg IR + 500 mg CICR-NAM daily
compound,measurement,setting,value
"NC(=O)c1cccnc1 [Nicotinamide, nicotinamide]","Ability to perform normal activities, complaint scale 0-6, mean",[1],3.037
same,"Ability to perform normal activities, complaint scale 0-6, median",[1],3.000
same,"Cough complaint scale 0-6, mean",[1],3.000
same,"Cough complaint scale 0-6, median",[1],3.000
same,"Ability to perform normal activities, complaint scale 0-6, mean",[2],3.373
same,"Ability to perform normal activities, complaint scale 0-6, median",[2],4.000
same,"Ability to perform normal activities, complaint scale 0-6, mean",[3],4.000
same,"Ability to perform normal activities, complaint scale 0-6, median",[3],4.0
same,"Ability to perform normal activities, complaint scale 0-6, mean",[4],2.915
same,"Ability to perform normal activities, complaint scale 0-6, median",[4],3.0
same,"Ability to perform normal activities, complaint scale 0-6, mean",[5],4.000
same,"Ability to perform normal activities, complaint scale 0-6, median",[5],4.0
same,"Ability to perform normal activities, complaint scale 0-6, mean",[6],3.188
same,"Ability to perform normal activities, complaint scale 0-6, median",[6],3.0
same,Cough complaint scale vs placebo (Table 7.1),patients with cough and taste loss,significant difference found in favour of placebo
same,"Cough complaint scale, mean",[7],2.194
same,"Cough complaint scale, median",[7],2.0
same,"Cough complaint scale, mean",[8],0.917
same,"Cough complaint scale, median",[8],0.0
same,"Change in cough complaint scale, mean",[9],−1.287
same,"Change in cough complaint scale, median",[9],−1.0
same,"Cough complaint scale, mean",[10],0.639
same,"Cough complaint scale, median",[10],0.0
same,"Cough complaint scale, mean",[11],0.417
same,"Cough complaint scale, median",[11],0.0
same,"Change in cough complaint scale, mean",[12],−1.778
same,"Change in cough complaint scale, median",[12],−2.0
same,"Change in fatigue: constant, number of patients",[13],1
same,"Change in fatigue: improved, %",[13],83.33%
same,"Change in fatigue: improved, number of patients",[13],5
same,"Change in fatigue: worse, %",[13],0.00%
same,"Change in fatigue: worse, number of patients",[13],0
same,"Change in fatigue: constant, number of patients",[14],2
same,"Change in fatigue: improved, %",[14],66.67%
same,"Change in fatigue: improved, number of patients",[14],4
same,"Change in fatigue: worse, %",[14],0.00%
same,"Change in fatigue: worse, number of patients",[14],0
same,"Change in fatigue: constant, number of patients",[15],1
same,"Change in fatigue: improved, %",[15],87.50%
same,"Change in fatigue: improved, number of patients",[15],7
same,"Change in fatigue: worse, %",[15],0.00%
same,"Change in fatigue: worse, number of patients",[15],0
same,"Change in fatigue: constant, number of patients",[16],2
same,"Change in fatigue: improved, %",[16],75.00%
same,"Change in fatigue: improved, number of patients",[16],6
same,"Change in fatigue: worse, %",[16],0.00%
same,"Change in fatigue: worse, number of patients",[16],0
same,"Effect on the ability to perform normal activities, fatigue and reduced physical performance","patients with ≥1 risk factor for severe COVID-19, futility analysis",biologically and statistically significant positive effect
same,"Cough complaint scale 0-6, mean change",[17],−1.815
same,"Cough complaint scale 0-6, median change",[17],−2.000
same,"Ability to perform normal activities, complaint scale 0-6, mean",[18],1.556
same,"Ability to perform normal activities, complaint scale 0-6, median",[18],1.000
same,"Cough complaint scale 0-6, mean",[18],1.185
same,"Cough complaint scale 0-6, median",[18],1.000
same,"Ability to perform normal activities, complaint scale 0-6, mean",[19],1.093
same,"Ability to perform normal activities, complaint scale 0-6, median",[19],0.000
same,"Presence of cough constant vs baseline, % of patients",[19],60.00%
same,"Presence of cough constant vs baseline, patients",[19],45
same,"Presence of cough improved vs baseline, % of patients",[19],36.00%
same,"Presence of cough improved vs baseline, patients",[19],27
same,"Presence of cough worse vs baseline, % of patients",[19],4.00%
same,"Presence of cough worse vs baseline, patients",[19],3
same,"Ability to perform normal activities, complaint scale 0-6, mean",[20],1.733
same,"Ability to perform normal activities, complaint scale 0-6, median",[20],2.0
same,"Ability to perform normal activities, complaint scale 0-6, mean",[21],1.226
same,"Ability to perform normal activities, complaint scale 0-6, median",[21],1.0
same,"Ability to perform normal activities, complaint scale 0-6, mean",[22],1.381
same,"Ability to perform normal activities, complaint scale 0-6, median",[22],1.0
same,"Ability to perform normal activities, complaint scale 0-6, mean",[23],1.299
same,"Ability to perform normal activities, complaint scale 0-6, median",[23],1.0
same,"Fatigue constant vs baseline, % of patients",[23],57.26%
same,"Fatigue constant vs baseline, patients",[23],67
same,"Fatigue improved vs baseline, % of patients",[23],40.17%
same,"Fatigue improved vs baseline, patients",[23],47
same,"Fatigue worse vs baseline, % of patients",[23],2.56%
same,"Fatigue worse vs baseline, patients",[23],3
same,"Ability to perform normal activities, complaint scale 0-6, mean change",[24],−1.667
same,"Ability to perform normal activities, complaint scale 0-6, median change",[24],−2.000
same,"Ability to perform normal activities, complaint scale 0-6, mean change",[25],−2.800
same,"Ability to perform normal activities, complaint scale 0-6, median change",[25],−3.0
same,"Ability to perform normal activities, complaint scale 0-6, mean change",[26],−2.179
same,"Ability to perform normal activities, complaint scale 0-6, median change",[26],−2.0
same,"Ability to perform normal activities, complaint scale 0-6, mean change",[27],−2.952
same,"Ability to perform normal activities, complaint scale 0-6, median change",[27],−3.0
same,"Ability to perform normal activities constant vs baseline, % of patients",[28],14.81%
same,"Ability to perform normal activities constant vs baseline, patients",[28],4
same,"Ability to perform normal activities improved vs baseline, % of patients",[28],74.07%
same,"Ability to perform normal activities improved vs baseline, patients",[28],20
same,"Ability to perform normal activities worse vs baseline, % of patients",[28],11.11%
same,"Ability to perform normal activities worse vs baseline, patients",[28],3
same,"Ability to perform normal activities, complaint scale 0-6, mean",[28],1.370
same,"Ability to perform normal activities, complaint scale 0-6, median",[28],1.000
same,"Cough complaint scale 0-6, mean",[28],0.815
same,"Cough complaint scale 0-6, median",[28],0.000
same,"Ability to perform normal activities constant vs baseline, % of patients",[29],9.33%
same,"Ability to perform normal activities constant vs baseline, patients",[29],7
same,"Ability to perform normal activities improved vs baseline, % of patients",[29],84.00%
same,"Ability to perform normal activities improved vs baseline, patients",[29],63

# Reference: patent US20230414599A1, “NICOTINAMIDE, NICOTINAMIDE PRECURSORS AND NICOTINAMIDE METABOLITES AND COMPOSITIONS THEREOF FOR REDUCING THE TIME TO RESOLUTION OF SYMPTOMS IN PATIENTS WITH COVID-19 AND OTHER VIRAL INFECTIONS” (CONARIS RESEARCH INSTITUTE AG, priority 2020, published 2023)
